Assay results as given in ChEMBL document CHEMBL1201862, “PubChem BioAssay data set” (2004).
Activity calls are given as the source filed them.

Columns and labels:
[1] = biological target: Adenosylmethionine-8-amino-7-oxononanoate aminotransferase (Mycobacterium tuberculosis, UniProt P9WQ81); assay: Mycobacterium tuberculosis BioA enzyme inhibitor Measured in Biochemical System Using Plate Reader - 2163-02_Inhibitor_Dose_CherryPick_Activity.; assay type: functional, Mycobacterium tuberculosis UT205
[2] = general mammalian cell viability loss – inhibitor set, cherry-pick, set 2, cytotoxicity control for miR-122 modulator project, dose response (AID 720697); assay type: functional, cell-based
[3] = THP-1 cell cytotoxicity, cytotoxicity control, set 4 (AID 504911); assay type: functional; conditions: Mycobacterium tuberculosis
Beta-lactamase [4] = biological target: Beta-lactamase (Salmonella choleraesuis (strain SC-B67), UniProt Q5J463); assay: Epi-absorbance-based counterscreen for selective VIM-2 inhibitors: dose response biochemical high throughput screening assay to identify inhibitors of TEM-1 serine-beta-lactamase.
Beta-lactamase [5] = biological target: T1, Beta-lactamase (Pseudomonas aeruginosa, UniProt Q79MP6); assay: inhibition of IMP-1 beta-lactamase activity – biochemical, epi-absorbance, selectivity assay for VIM-2 inhibitor project, dose response (AID 1920)
Beta-lactamase [6] = biological target: T1, Beta-lactamase; assay: […] counterscreen for selective VIM-2 inhibitors: dose response biochemical high throughput screening assay to identify inhibitors of IMP-1 metallo-beta-lactamase.
HEK293 [7] = assay: EBV LMP1 TES2 canonical NF-kB signalling blockers – cell-based, HEK293, luciferase, cherry-pick, dose response (AID 588343); assay type: functional; conditions: Homo sapiens
HEK293 [8] = assay: inhibition of NOD1-driven NF-kB reporter – cell-based, luminescence, uHTS, primary screen (AID 1578); assay type: functional; conditions: Homo sapiens
[9] = biological target: Nucleotide-binding oligomerization domain-containing protein 2 (Homo sapiens, UniProt Q9HC29); assay: inhibition of NOD2-driven NF-kB reporter – cell-based, luminescence, uHTS, HEK293 (AID 1566); assay type: functional
HEK293 [10] = assay: cells; assay type: functional, cell-based; conditions: Homo sapiens
[11] = Trypanosoma cruzi growth suppression in host cells – NIH3T3 host cells, beta-gal luminescence, confirmation (AID 2044); assay type: functional, cell-based;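 also: intracellular parasites grown in NIH/3T3 mouse fibroblasts as host cells; luminescent beta-galactosidase reporter signal from transgenic T. cruzi replicating inside host cells; inhibitors lower the luminescence signal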
HEK293 [12] = assay: cells; assay type: functional, cell-based; conditions: Homo sapiens; remark: listed apart in the source
HEK293 [13] = assay: NOD2 signaling inhibitors in MDP-stimulated cells, cell-based, uHTS, luminescence (AID 2001); assay type: functional; conditions: Homo sapiens
[14] = NIH3T3 cell viability loss – ATP luminescence, mouse fibroblasts, counter-screen, dose response (AID 2010); assay type: functional, cell-based;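 also: cells exposed to compound for about 90 hours before reading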
Protein Wnt-3a = Protein Wnt-3a (Mus musculus, UniProt P27467); assay: antagonism of Wnt3a pathway luciferase reporter – Wnt-LIGHT cells, luminescence, selectivity assay for Gli-SUFU antagonist project, dose response (AID 651570); assay type: functional; conditions: read-out: IC50_Mean;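 also: Wnt-LIGHT reporter cells stimulated with conditioned medium from Wnt3a-producing cells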
HEK293 [15] = assay: cells; assay type: functional, cell-based; conditions: Homo sapiens; remark: listed apart in the source
BJ [16] = assay: BJ-TERT fibroblast viability loss – cell-based, RAS-independent, luminescence, dose response (AID 1933); assay type: functional; conditions: Homo sapiens
[17] = Luminescence Cell-Based Dose Response HTS to Identify Inhibitors of 5'UTR Stem-Loop Driven Prion Protein mRNA Translation in H4 Neuroglioblastoma Cells. [Related pubchem assays: 1827 (Project Summary), 1813 (Primary HTS)]; assay type: functional
[18] = DRD fibroblast viability loss – cell-based, non-viral oncogenic, luminescence, dose response (AID 1934); assay type: functional; conditions: Homo sapiens
[19] = alpha-synuclein stem-loop luciferase translation blockers – H4 neuroglioma cells, luminescence, confirmation (AID 1988); assay type: functional, cell-based
BJ [20] = assay: growth inhibition of engineered Ras-driven BJ cells – cell-based, alamar blue fluorescence, cherrypicked samples, dose response (AID 2631); assay type: functional; conditions: Homo sapiens;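 also: confirmatory dose-response assay in RAS-dependent BJ fibroblasts engineered with TERT, LT and ST, with cytotoxicity read by fluorescence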
BJ [21] = assay: BJ-TERT-LT-ST fibroblast viability loss – cell-based, RAS-independent, luminescence, dose response (AID 1935); assay type: functional; conditions: Homo sapiens;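 also: BJ fibroblasts immortalized with TERT plus LT and ST oncogenes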
BJ [22] = assay: cells; assay type: functional, cell-based; conditions: Homo sapiens
[23] = luciferase reporter signal suppression in cells – H4 neuroglioma cells, luminescence, dose response (AID 1990); assay type: functional, cell-based

Sequence of Adenosylmethionine-8-amino-7-oxononanoate aminotransferase (P9WQ81 whole entry): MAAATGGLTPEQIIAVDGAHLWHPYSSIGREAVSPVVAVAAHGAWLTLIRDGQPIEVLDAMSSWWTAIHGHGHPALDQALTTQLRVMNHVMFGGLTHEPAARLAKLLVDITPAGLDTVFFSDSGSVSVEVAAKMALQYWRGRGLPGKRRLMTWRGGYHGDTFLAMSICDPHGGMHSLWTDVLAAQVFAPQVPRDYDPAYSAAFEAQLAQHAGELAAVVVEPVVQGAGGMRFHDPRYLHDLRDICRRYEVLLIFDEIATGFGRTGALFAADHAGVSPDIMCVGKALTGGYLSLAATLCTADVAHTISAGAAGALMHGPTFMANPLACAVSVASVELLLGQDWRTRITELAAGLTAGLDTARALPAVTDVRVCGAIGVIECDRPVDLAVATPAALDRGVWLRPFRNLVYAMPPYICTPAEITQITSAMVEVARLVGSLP
T1 sequence (Q79MP6 whole entry): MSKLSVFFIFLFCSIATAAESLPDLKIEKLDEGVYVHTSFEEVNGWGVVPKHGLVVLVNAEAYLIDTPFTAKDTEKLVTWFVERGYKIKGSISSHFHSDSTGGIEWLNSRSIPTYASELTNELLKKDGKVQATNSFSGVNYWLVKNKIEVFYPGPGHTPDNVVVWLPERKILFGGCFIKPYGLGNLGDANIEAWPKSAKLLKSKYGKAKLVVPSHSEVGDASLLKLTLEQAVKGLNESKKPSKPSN
Sequence of Nucleotide-binding oligomerization domain-containing protein 2 (Q9HC29 whole entry, the tested form may be a part): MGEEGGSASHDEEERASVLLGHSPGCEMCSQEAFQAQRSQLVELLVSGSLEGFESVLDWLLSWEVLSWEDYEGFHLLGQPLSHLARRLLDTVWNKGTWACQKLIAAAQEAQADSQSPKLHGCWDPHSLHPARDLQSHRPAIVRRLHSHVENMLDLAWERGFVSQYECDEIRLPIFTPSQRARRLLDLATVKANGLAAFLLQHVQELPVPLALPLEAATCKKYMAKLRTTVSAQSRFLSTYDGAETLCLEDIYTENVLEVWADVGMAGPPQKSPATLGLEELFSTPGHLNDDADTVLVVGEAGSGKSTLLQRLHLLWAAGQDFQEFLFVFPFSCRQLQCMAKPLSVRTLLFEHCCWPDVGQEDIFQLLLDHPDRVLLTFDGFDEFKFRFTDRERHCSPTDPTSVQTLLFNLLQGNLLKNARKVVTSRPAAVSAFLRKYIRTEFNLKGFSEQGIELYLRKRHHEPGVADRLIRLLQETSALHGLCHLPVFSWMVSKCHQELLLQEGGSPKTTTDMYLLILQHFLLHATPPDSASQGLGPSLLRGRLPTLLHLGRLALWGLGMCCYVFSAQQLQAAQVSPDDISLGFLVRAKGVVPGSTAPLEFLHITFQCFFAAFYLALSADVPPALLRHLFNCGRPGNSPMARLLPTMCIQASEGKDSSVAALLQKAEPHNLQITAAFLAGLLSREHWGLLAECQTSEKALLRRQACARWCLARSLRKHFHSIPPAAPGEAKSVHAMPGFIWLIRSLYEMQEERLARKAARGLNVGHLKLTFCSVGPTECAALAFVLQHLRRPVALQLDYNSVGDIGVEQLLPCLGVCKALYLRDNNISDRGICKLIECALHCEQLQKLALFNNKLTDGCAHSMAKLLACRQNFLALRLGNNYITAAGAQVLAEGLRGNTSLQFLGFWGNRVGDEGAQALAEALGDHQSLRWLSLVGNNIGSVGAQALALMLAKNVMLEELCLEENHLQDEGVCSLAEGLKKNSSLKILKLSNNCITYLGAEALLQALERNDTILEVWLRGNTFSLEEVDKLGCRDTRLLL
Sequence of Protein Wnt-3a (P27467 whole entry): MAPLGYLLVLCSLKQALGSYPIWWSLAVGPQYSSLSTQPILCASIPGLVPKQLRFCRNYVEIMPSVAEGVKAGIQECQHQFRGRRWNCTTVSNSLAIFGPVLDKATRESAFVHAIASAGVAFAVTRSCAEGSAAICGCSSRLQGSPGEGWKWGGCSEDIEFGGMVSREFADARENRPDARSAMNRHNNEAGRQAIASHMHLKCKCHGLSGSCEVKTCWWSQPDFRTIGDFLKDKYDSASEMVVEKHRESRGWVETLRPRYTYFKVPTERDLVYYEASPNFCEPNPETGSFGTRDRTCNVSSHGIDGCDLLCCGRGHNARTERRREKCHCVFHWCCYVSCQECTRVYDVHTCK
Sequence of Beta-lactamase (Salmonella choleraesuis (strain SC-B67), UniProt Q5J463) (Q5J463 whole entry): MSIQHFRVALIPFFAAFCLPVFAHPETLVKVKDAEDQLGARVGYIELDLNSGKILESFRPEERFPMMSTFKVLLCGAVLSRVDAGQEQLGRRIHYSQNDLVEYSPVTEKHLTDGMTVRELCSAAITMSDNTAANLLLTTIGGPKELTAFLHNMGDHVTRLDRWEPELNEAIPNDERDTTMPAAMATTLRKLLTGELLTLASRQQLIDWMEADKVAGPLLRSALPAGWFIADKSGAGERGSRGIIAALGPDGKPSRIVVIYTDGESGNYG

In the case of `Cc1nn(CCC(=O)O)c2nc(-c3cccnc3)cc(C(F)(F)F)c12`, the AC50 [1] is reported as 10.2 µM (active).
For `NC(=O)c1csc(-c2ccncc2)n1`, the AC50 [2] was 8.85 µM (active).
In the case of `O=C(CSc1ncccn1)NC1CCCCC1`, the CC50 [3] is reported as > 100 µM (active).
In the case of `Cc1ccc(-n2c(-c3nn(C)c(C)c3Cl)n[nH]c2=S)cc1`, the IC50 (Beta-lactamase [4]) is reported as > 59.6 µM (inactive), the IC50 (Beta-lactamase [5]) is reported as > 59.6 µM (inactive) and the IC50 (Beta-lactamase [6]) is reported as > 59.6 µM (inactive).
With `C=CCn1c(O)c(N=NC(=S)Nc2cccc(C)c2)c2ccccc21` the AC50 (HEK293 [7]) was 1.46 µM (active), the EC50 (HEK293 [8]) was 1.09 µM (active) and the EC50 [9] was 16.3 µM (active). For the same molecule, the IC50 (HEK293 [10]) was > 20 µM (inactive), the EC50 [11] was 0.558 µM (active) and the IC50 (HEK293 [12]) was 2.97 µM (active). The IC50 (HEK293 [13]) was 1.18 µM (active), the EC50 [14] was 3.44 µM (active) and the IC50 (Protein Wnt-3a) was 29.2 µM (inactive). For the same molecule, the IC50 (HEK293 [15]) was > 20 µM (inactive).
In the case of `N#CC1=C(N)Oc2cc(N)ccc2C1c1cccc(Br)c1` (stereo not given), the EC50 (BJ [16]) is reported as 1.2 µM (active), the EC50 [17] is reported as 0.502 µM (active) and the EC50 [18] is reported as 0.658 µM (active). For the same molecule, the EC50 [19] was 0.18 µM (active), the EC50 (BJ [20]) was 0.182 µM (active) and the EC50 (BJ [21]) was 0.859 µM (inconclusive). For the same molecule, the EC50 (BJ [22]) was 0.702 µM (active) and the EC50 [23] was 1.83 µM (active).
For `O=C(Nc1cccnc1)c1ccc(N2CCOCC2)c([N+](=O)[O-])c1`, the AC50 [1] was 6.8 µM (active).
